How the values were obtained:
pure chytrid culture = assay: Chytrid tolerance: pure chytrid culture in well plate, observed under a microscope (Examples 13-14); assay type: cell-based; conditions: 40 ppm
Description: Experiments were performed to determine chytrid tolerance to bleach, salt, Lufenuron (chemical biocide), and Rid Fungus (blend of natural organic herbs) for evaluation as a treatment for chytrids. A pure chytrid culture in a well plate was treated every 24 hours and observed under a microscope to determine the effect. An untreated culture was used as a control for comparison purposes. Qualitative assessments and quantitative estimates were made by visual observation under a microscope.
Several concentrations of salt and Rid Fungus (blend of organic herbs) were further investigated as a chytrid treatment, as in Example 13. A pure chytrid culture in a well plate was treated and visually observed under a microscope to determine the effect. An untreated culture was used as a control for comparison purposes.

chytrids = assay: Haematococcus red cyst cells infected with chytrids treated in well plates (Example 15); assay type: cell-based
Description: Several concentrations of bleach and Lufenuron were further investigated for their effectiveness as chytrid treatments for Haematococcus pluvialis during culturing. Cultures of Haematococcus pluvialis (Strain 1) red cyst cells infected with chytrids were treated in well plates (0.5 mL volume) with bleach or Lufenuron to evaluate the effect on the Haematococcus cells if bleach or Lufenuron were to be used as a contamination treatment. A first control culture of Haematococcus red cyst cells absent of chytrids and a second control culture of healthy Haematococcus red cyst cells inoculated with chytrids were used as comparisons for the treatments. The cultures were treated with bleach at or less than the tolerance level of Haematococcus: 0.01, 0.02 and 0.03 mL/L of 12.5% stock concentration bleach (calculated concentration 0.00125, 0.0025, and 0.00375 mL/L), or different concentrations of Lufenuron (0.01, 0.1 and 1% of culture volume). The cultures were observed under a microscope during the experiment to determine effectiveness.

[1] = test system: chytrid zoospores and sporangia; conditions: 1% dose of a solution comprising 50% NaOH; 25, 40, and 50° C
Description: A solution comprising 50% sodium hydroxide (NaOH) was evaluated as a treatment for chytrids that could be applied to empty reactors in order to clean them for subsequent batches. A pure culture of chytrid zoospores and sporangia was treated with a 1% dose of a solution comprising 50% NaOH at temperatures of 25, 40, and 50° C. The cultures were then observed under a microscope for a reduction in the chytrid zoospores or sporangia number, or a reduction in the integrity of the chytrid cells.

[2] = test system: Haematococcus pluvialis (Strain 1)

In the case of `O=C(NC(=O)c1c(F)cccc1F)Nc1cc(Cl)c(OC(F)(F)C(F)C(F)(F)F)cc1Cl` (stereo not drawn) [Lufenuron], the “microscope observation of pure chytrid culture” value (pure chytrid culture; after 1 hour) is reported as “swimming zoospores”, the “microscope observation of pure chytrid culture” value (pure chytrid culture; after 24 hours) is reported as “Swimming zoospores” and the “microscope observation of pure chytrid culture” value (pure chytrid culture; after 48 hours and 72 hours) is reported as “heavy bacteria with sporangia and zoospores”. The “microscope observation of infected red cyst culture” value (chytrids; 0.01% of culture volume, after 24 and 48 hours) was “swimming zoospores and positive infection”, the “microscope observation of infected red cyst culture” value (chytrids; 0.01% of culture volume, after 72 hours) was “Some swimming zoospores, Ochromonas (single-celled, motile, golden-brown alga), and active infection” and the “microscope observation of infected red cyst culture” value (chytrids; 0.10% of culture volume, after 24 and 48 hours) was “dead sporangia, some infection, and active zoospores”. The “microscope observation of infected red cyst culture” value (chytrids; 0.10% of culture volume, after 72 hours) was “Some swimming zoospores and active infection”, the “microscope observation of infected red cyst culture” value (chytrids; 1.00% of culture volume, after 24 hours) was “dead sporangia and zoospores attached to cyst cells” and the “microscope observation of infected red cyst culture” value (chytrids; 1.00% of culture volume, after 48 hours) was “Ochromonas, bacteria, dead sporangia, zoospores attached to cyst cells, and few swimming zoospores”. The “microscope observation of infected red cyst culture” value (chytrids; 1.00% of culture volume, after 72 hours) was “Ochromonas, no active infection, and no zoospores”.
`[Na+].[OH-]` [NaOH, sodium hydroxide] was tested, and the “reduction in chytrid zoospores or sporangia number or integrity” value [1] was “not a reduction in chytrid zoospores or sporangia number or integrity”.
For bleach, the “known tolerance of Haematococcus pluvialis (Strain 1)” value [2] was 0.00375 mL/L.

Source: US20160281050A1, “METHODS FOR TREATING A CULTURE OF HAEMATOCOCCUS PLUVIALIS FOR CONTAMINATION USING SALT AND HYDROGEN PEROXIDE” (HELIAE DEVELOPMENT LLC, priority 2015, published 2016)
